Laboratory results from patent publication US20220218678A1, “USE OF 1-PHENYL-2-PYRIDINYL ALKYL ALCOHOL DERIVATIVES FOR TREATING CYSTIC FIBROSIS” (CHIESI FARMACEUTICI S.p.A., priority 2017, published 2022).

Legend:
CFTR channel = target: T1, CFTR channel (Homo sapiens, UniProt P13569); test: Transepithelial electrical resistance (TEER) assay on 16HBE14o− bronchial epithelial cells; type: cell-based; settings: 16HBE14o− cells, 10, 30 and 60 minutes; CHF6001 30 nM, Roflumilast 50 nM
T1 construct: the TEER assay was performed with these agents on 16HBE14o− bronchial epithelial cells (BEC); endogenous in cells; host or cells: 16HBE14o− human bronchial epithelial cell line (provided by P. Davis)

ΔF508 CFTR = target: T2, ΔF508 CFTR (Homo sapiens, UniProt P13569, DEL508-508); test: HS-YFP assay, CFTR corrector activity in CFBE41o− cells; type: cell-based; settings: 24 h exposure, VRT809 5 μM
T2 construct: cells expressing endogenous ΔF508-CFTR; endogenous in cells; host or cells: CFBE41o− human CF bronchial epithelial cell line (gift from D. C. Gruenert), homozygous ΔF508
Description: The CF human bronchial epithelial cell line (CFBE41o−), homozygous for the ΔF508 mutation of the CFTR protein (Ehrhard et al., 2006, Cell Tissue Res. Vol. 323, p. 405-415; kind gift from D. C. Gruenert, California Pacific Medical Center Research Institute, San Francisco, Calif., USA) and the human bronchial epithelial cell line 16HBE14o−, wildtype (wt) for the CFTR protein (kindly provided by P. Davis, Case Western Reserve University School of Medicine, Cleveland, Ohio, USA) were maintained in EMEM (Lonza) supplemented with 10% FBS and 1% Glutamax (Sigma). […]
The CFTR activity in epithelial cells was evaluated by Yellow Fluorescence Protein (YFP) with a protocol modified from the method published by Averna et al. (PLoS One, 2013, vol. 8, e66089). […]
The potential corrector activity of roflumilast and a compound of general formula (I) (CHF6001) was evaluated in comparison with the known CFTR corrector VRT809 in the human bronchial epithelial cell line CFBE41o− (homozygous for the ΔF508 mutation of the CFTR protein) by the HS-YFP assay (FIG. 3). […]
FIG. 3. CFTR corrector activity was evaluated in CFBE41o− epithelial cell line after 24 h exposure to CFTR corrector VRT809 (5 μM), CHF6001, and Roflumilast at the indicated doses.
Values are normalized for total cell content and expressed as means±SEM (n=4) *p≤0.05 t-test (vs DMSO)

CFTR [1] = target: T3, CFTR (Homo sapiens, UniProt P13569, DEL508-508); test: Western Blot, total presence of CFTR protein in CFBE41o− cells; type: cell-based; settings: 24 h exposure, VRT809 5 μM
T3 construct: cells expressing endogenous ΔF508-CFTR; endogenous in cells; host or cells: CFBE41o− human CF bronchial epithelial cell line (gift from D. C. Gruenert), homozygous ΔF508
Procedure: CFBE41o− and 16HBE14o− cells, respectively, were lysed in lysis buffer (50 mmol/L Tris, 150 mmol/L NaCl, 1 mmol/L EDTA, 1% Triton X-100 pH 7.4) containing protease inhibitors (Roche, Inc.). A total of 10 μg (16HBE14o−/CFBE41o−) total protein per lane was separated using 7.5% (v/v) polyacrylamide electrophoresis (PAGE) SDS gels and transferred onto nitro-cellulose membranes, that were probed with a monoclonal anti-CFTR antibody (Cell Signaling 2269; according to information provided by Cell Signaling produced by immunizing rabbits with a synthetic peptide corresponding to amino acid residues near the amino terminus of human CFTR) at a 1:500 dilution, overnight at 4° C. Membranes were re-probed with a monoclonal anti-actin (Sigma-Aldrich) to normalize for protein loading. The relative levels of CFTR were estimated by densitometry using the ImageJ program (http://rsb.info.nih.gov/ij/). The amount of band C (understood to be the fully glycosylated mature form of CFTR)) is calculated as a fraction of actin for the respective lane and reported as a fraction of the total (band C/actin). […] The values reported are expressed as means+/−SD (n=3). Data sets were compared by a t-test using GraphPad Prism. […]
FIG. 5. Presence of CFTR was evaluated by western blotting in human bronchial epithelial cell lines 16HBE14o− (non CF) and CFBE41o− (ΔF508/ΔF508) after 24 h exposure to CFTR corrector VRT809 (5 μM) in comparison with the two compounds CHF6001 and Roflumilast.
Top: average of several experiments; the relative levels of CFTR were estimated by densitometry using the ImageJ program (http://rsb.info.nih.gov/ij/). The native amount of band C is calculated as a fraction of actin for the respective lane and reported as a fraction of the total (band C/actin). The values reported are expressed as means+/−SEM (n=3). […]

CFTR [2] = test: Immunofluorescence staining of CFTR in CFBE41o− cells; type: cell-based, human; settings: CFBE41o− cells treated for 24 h, different concentrations
Procedure: CFBE41o− and 16HBE14o− cells, respectively, were seeded on a glass slide and, after exposure to agent or vehicle, were washed twice with PBS 1× and fixed with paraformaldehyde 4% (PFA) for 30 min and stored in PBS 1× at 4° C. until immunostaining. The fixed cells were washed twice with PBS 1×, and treated for 3 minutes with […] NH4Cl at room temperature in order to quench the aldehyde group. After another washing step, the cells were permeabilized with TRITON X100 0.1% for 5 minutes and were blocked with a solution of 1% BSA for 30 minutes. The anti-CFTR antibody M3A7, raised against an epitope corresponding to residues 1197-1480 of human CFTR (Santa Cruz) was added at 1:100 dilution for 1 hour, then the cells were stained with secondary antibody anti IgG1 488 (1:1000, Santa Cruz) and Rhodamine Phalloidine (1:500) for another hour. Finally, the cells were subjected to DAPI (Sigma Aldrich) staining (1:2000) for 1 hour at RT, then the slides were analyzed by Leica DM6000M microscope with a 40× objective. Images were processed for brightness and contrast with Adobe Photoshop.
FIG. 6: Immunofluorescence staining performed on CFBE41o− cells treated for 24 h with VX809+VX770, CHF6001 and Roflumilast at different concentrations or vehicle (DMSO).

T1 sequence (P13569 whole entry): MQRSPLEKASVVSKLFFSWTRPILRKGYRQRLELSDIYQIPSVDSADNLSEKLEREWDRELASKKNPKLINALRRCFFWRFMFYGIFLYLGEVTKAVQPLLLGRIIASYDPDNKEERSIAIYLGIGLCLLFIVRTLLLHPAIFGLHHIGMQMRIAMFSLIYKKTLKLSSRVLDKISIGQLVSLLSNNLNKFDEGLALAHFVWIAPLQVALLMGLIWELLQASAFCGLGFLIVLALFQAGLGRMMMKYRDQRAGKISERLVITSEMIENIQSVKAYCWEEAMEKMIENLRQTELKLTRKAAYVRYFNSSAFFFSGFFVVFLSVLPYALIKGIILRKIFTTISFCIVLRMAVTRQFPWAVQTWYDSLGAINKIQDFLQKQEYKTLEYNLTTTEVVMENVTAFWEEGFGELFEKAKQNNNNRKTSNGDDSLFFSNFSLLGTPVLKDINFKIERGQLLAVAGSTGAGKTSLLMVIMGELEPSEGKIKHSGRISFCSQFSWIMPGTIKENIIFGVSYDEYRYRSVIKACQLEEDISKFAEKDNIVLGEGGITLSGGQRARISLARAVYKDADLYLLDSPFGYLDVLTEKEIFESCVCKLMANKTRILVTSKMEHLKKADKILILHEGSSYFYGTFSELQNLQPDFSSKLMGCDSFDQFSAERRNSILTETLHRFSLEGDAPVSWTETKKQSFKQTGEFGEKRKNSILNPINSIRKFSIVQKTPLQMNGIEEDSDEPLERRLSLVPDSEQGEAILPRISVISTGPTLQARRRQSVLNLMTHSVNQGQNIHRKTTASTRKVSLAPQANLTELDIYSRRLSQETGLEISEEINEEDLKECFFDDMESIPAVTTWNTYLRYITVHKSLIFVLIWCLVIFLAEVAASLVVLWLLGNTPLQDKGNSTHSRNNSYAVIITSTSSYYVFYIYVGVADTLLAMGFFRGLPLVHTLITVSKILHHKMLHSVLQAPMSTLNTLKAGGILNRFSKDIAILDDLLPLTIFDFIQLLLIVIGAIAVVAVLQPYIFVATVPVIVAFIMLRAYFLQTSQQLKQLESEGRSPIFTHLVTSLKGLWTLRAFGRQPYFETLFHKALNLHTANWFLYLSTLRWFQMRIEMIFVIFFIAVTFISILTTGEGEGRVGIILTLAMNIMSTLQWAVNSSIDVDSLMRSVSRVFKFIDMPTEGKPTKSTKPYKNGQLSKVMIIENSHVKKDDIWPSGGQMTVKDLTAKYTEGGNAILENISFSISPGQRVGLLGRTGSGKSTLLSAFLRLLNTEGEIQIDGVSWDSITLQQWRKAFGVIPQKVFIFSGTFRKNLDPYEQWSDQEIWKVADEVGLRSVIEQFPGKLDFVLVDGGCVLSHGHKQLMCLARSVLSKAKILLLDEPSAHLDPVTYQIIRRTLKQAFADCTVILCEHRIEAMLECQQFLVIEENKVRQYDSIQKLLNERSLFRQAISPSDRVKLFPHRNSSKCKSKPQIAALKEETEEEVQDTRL
T2 sequence (P13569 with tags, fused parts or gaps DEL508-508): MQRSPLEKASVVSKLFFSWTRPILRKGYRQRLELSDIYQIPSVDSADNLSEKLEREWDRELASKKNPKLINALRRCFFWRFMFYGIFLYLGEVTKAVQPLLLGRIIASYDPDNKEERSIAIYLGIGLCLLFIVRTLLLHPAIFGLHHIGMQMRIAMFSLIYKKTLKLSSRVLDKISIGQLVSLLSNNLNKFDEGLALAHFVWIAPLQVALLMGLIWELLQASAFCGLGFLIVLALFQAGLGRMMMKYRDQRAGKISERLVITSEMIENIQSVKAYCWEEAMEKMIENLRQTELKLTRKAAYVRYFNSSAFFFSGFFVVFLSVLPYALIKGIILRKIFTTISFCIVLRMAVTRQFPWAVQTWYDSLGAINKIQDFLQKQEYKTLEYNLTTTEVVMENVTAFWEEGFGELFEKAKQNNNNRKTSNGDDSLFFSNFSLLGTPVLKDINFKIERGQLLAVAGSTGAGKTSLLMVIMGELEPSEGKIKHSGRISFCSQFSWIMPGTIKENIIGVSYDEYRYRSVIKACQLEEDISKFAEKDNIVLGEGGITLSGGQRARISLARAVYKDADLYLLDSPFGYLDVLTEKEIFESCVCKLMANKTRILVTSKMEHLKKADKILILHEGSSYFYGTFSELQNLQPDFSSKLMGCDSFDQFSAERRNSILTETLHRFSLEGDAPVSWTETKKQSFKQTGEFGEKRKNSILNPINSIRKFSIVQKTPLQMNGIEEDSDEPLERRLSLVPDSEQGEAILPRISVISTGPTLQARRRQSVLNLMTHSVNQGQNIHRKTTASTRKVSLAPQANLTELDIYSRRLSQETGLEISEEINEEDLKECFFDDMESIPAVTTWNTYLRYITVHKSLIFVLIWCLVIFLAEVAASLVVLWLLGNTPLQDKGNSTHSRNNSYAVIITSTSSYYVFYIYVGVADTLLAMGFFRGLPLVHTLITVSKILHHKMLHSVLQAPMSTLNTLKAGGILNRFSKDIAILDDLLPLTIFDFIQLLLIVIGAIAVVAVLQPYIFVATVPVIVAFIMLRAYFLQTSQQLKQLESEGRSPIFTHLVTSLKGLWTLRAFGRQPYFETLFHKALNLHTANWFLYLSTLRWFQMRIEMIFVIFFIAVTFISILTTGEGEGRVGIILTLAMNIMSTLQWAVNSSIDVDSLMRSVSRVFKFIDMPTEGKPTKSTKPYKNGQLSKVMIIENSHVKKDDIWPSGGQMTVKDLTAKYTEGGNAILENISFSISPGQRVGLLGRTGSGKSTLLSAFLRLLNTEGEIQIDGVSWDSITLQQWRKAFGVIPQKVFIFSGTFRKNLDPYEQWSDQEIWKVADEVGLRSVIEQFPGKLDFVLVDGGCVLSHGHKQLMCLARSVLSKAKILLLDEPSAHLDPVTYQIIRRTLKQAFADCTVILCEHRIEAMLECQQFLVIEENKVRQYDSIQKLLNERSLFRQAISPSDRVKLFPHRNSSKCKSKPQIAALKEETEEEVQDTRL
T3 sequence (P13569 with tags, fused parts or gaps DEL508-508): as above

| Compound | trans-epithelial electric resistance normalized to DMSO (set to 100%) (CFTR channel) | CFTR activity (corrector activity) compared with VRT809 (ΔF508 CFTR) | total presence of CFTR protein (band C/actin) (CFTR [1]) | presence of CFTR by immunofluorescence (CFTR [2]) |
| --- | --- | --- | --- | --- |
| O=C(Nc1c(Cl)cncc1Cl)c1ccc(OC(F)F)c(OCC2CC2)c1 [Roflumilast, 3-cyclo-propylmethoxy-4-difluoromethoxy-N-[3,5-di-chloropyrid-4-yl]-benzamide] | decrease the electric resistance | equal or superior to VRT809 | up-regulation of CFTR protein | increase the presence of CFTR |
| CS(=O)(=O)Nc1ccc(C(=O)OC(Cc2c(Cl)c[n+]([O-])cc2Cl)c2ccc(OC(F)F)c(OCC3CC3)c2)cc1OCC1CC1 (centres unmarked) [CHF6001, 3-Cyclopropylmethoxy-4-methanesulfonylamino-benzoic acid 1-(3-cyclopropylmethoxy-4-difluoromethoxy-phenyl)-2-(3,5-dichloro-1-oxy-pyridin-4-yl)-ethyl ester] | decrease the electric resistance | equal or superior to VRT809 | up-regulation of CFTR protein | increase the presence of CFTR |
